“Also recorded” adds a separate entry of the source.
Tests used:
[1] = Cytotoxicity assay (CellTiter-Glo); format: cell-based; settings: human, Huh7 cells stably expressing DENV-2 replicon
In short: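 Huh7 or Huh7 replicon cells, seeded overnight at 37 °C, exposed to 2-fold serial dilutions of compound for 48 h in duplicate. Viability by CellTiter-Glo, normalised to 0.45% DMSO wells (100%); CC50 by four-parameter logistic regression.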

[2] = system: DENV-1 replicon; test: Luciferase reporter replicon-based screening, DENV-1; format: cell-based, DENV-1 (strain WestPac); settings: for EC50: Dengue virus, DENV1, Huh-7, 48 h, read-out: EC50 DENV-1
In short: (§1)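 Huh7 cells carrying Renilla luciferase/neo replicons of DENV-1 (WestPac), DENV-2 (NGC), DENV-3 (D3MY05-34640) or DENV-4 (D4MY01-22713), treated with 2-fold compound dilutions for 48 h at 37 °C in duplicate. Live-cell luciferase read; EC50 by four-parameter logistic fit.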

[3] = system: DENV-4 replicon; test: Luciferase reporter replicon-based screening, DENV-4; format: cell-based, DENV-4 (strain D4MY01-22713); settings: for EC50: Dengue virus, DENV4, Huh-7, 48 h, read-out: EC50 DENV-4
In short: as §1

[4] = system: DENV-3 replicon; test: Luciferase reporter replicon-based screening, DENV-3; format: cell-based, DENV-3 (strain D3MY05-34640); settings: for EC50: Dengue virus, DENV3, Huh-7, 48 h, read-out: EC50 DENV-3, Huh7 cells stably expressing DENV-3 replicon, 48 h
In short: as §1

[5] = system: DENV-2 replicon; test: Luciferase reporter replicon-based screening, DENV-2; format: cell-based, DENV-2 (New Guinea C strain, NGC); settings: for EC50: Dengue virus, DENV2, Huh-7, 48 h, read-out: EC50 DENV-2, Huh7 cells stably expressing DENV-2 replicon, 48 h
In short: as §1

[6] = system: P12 resistant DENV-2 viruses (NS4B V63M or V63L); format: cell-based, DENV-2 strain NGC; settings: after twelve rounds of selection with compound 63, selections III to VI, Huh7 cells
[7] = target: T1, DENV-2 viral NS4B protein (Dengue virus type 2, UniProt P14340); test: Pull-down assay with biotinylated compounds; format: binding, DENV-2 strain NGC; settings: lysates of DENV-2 infected Huh7 cells, streptavidin beads, Western blot
T1 construct: endogenous in cells; host or cells: Huh7 cells infected with DENV-2 strain NGC (virus-encoded protein in the lysate)
Protocol: Pull-Down Assay. 4 × 10^6 Huh7 cells were seeded in a T-75 flask. The next day, cells were infected with DENV-2 strain NGC at a MOI of 2.0 in the presence of 10 µM compound 73 or 75. Cells treated with 0.25% DMSO were used as a control. After 48 h-incubation at 37° C., cells were harvested and lysed in 500 µL lysis buffer comprising 20 mM Tris-HCL pH 7.5, 100 mM NaCl, 0.5% DDM, and EDTA-free protease inhibitor cocktail (Roche). After removing the cell debris by centrifugation at 15000 rpm for 10 min, the lysates were mixed with corresponding compound at a final concentration of 100 µM or DMSO (0.25%) prior to incubation with 80 µL Streptavidin Magnetic Beads (ThermoFisher Scientific). After incubation at 4° C. overnight with agitation, the beads were washed 5 times with PBST buffer (PBS containing 0.1% Tween 20). The beads were finally mixed with 1 × LDS sample buffer (ThermoFisher Scientific) containing 100 mM dithiothreitol (DTT, Sigma-Aldrich) and heated at 95° C. for 10 minutes to elute the bead-associated proteins. The eluates and cell lysates were loaded onto a 12% SDS-PAGE and viral NS4B proteins were detected by a mouse monoclonal antibody according to the protocol as reported previously.^56

[8] = at the concentration up to 10 µM (data not shown)

Row | Structure (SMILES) | CC50 at 48 h [1] | EC50 [2] | EC50 [3] | EC50 [4] | EC50 [5] | increase of EC50 of resistant viruses (resistance fold vs P0 DENV-2) [6] | pull down of / association with viral NS4B protein [7] | activity against DENV-1 [2, 8] | activity against DENV-4 [3, 8] | remains active against DENV-3 ([4]; FIG. 1B) | remains active against DENV-2 ([5]; FIG. 1B)
1 | C[C@@H](c1ccc(Cl)cc1)n1nnc2c1NC(=O)C[C@]21C(=O)N(CCN2CCC2)c2ccc(Cl)cc21 [Compound 61, (R)-1'-(2-(Azetidin-1-yl)ethyl)-5'-chloro-3-((S)-1-(4-chlorophenyl)ethyl)-4,6-dihydrospiro[[1,2,3]triazolo[4,5-b]pyridine-7,3'-indoline]-2',5(3H)-dione] | > 10000 nM | > 5000 nM | > 5000 nM | 7 nM | 67 nM | – | – | – | – | – | –
2 | CNCCN1C(=O)[C@]2(CC(=O)Nc3c2nnn3[C@@H](C)c2ccc(Cl)cc2)c2cc(Cl)ccc21 [Compound 62, (R)-5'-chloro-3-((S)-1-(4-chlorophenyl)ethyl)-1'-(2-(methylamino)ethyl)-4,6-dihydrospiro[[1,2,3]triazolo[4,5-b]pyridine-7,3'-indoline]-2',5(3H)-dione] | > 10000 nM | > 5000 nM | > 5000 nM | 22 nM | 120 nM | – | – | – | – | – | –
3 | C[C@@H](c1ccc(Cl)cc1)n1nnc2c1NC(=O)C[C@]21C(=O)N(CCCN(C)C)c2ccc(Cl)cc21 [Compound 63, (R)-5'-Chloro-3-((S)-1-(4-chlorophenyl)ethyl)-1'-(3-(dimethylamino)propyl)-4,6-dihydrospiro[[1,2,3]triazolo[4,5-b]pyridine-7,3'-indoline]-2',5(3H)-dione] | > 10000 nM | > 5000 nM | > 5000 nM | 1 nM | 25 nM | > 100 folds | – | – | – | – | –
4 | C[C@@H](c1ccc(Cl)cc1)n1nnc2c1NC(=O)C[C@]21C(=O)N(CCCN2CCCCC2)c2ccc(Cl)cc21 [Compound 64, (R)-5'-Chloro-3-((S)-1-(4-chlorophenyl)ethyl)-1'-(3-(piperidin-1-yl)propyl)-4,6-dihydrospiro[[1,2,3]triazolo[4,5-b]pyridine-7,3'-indoline]-2',5(3H)-dione] | > 10000 nM | > 5000 nM | > 5000 nM | 12 nM | 130 nM | – | – | – | – | – | –
5 | C[C@@H](c1ccc(Cl)cc1)n1nnc2c1NC(=O)C[C@]21C(=O)N(CCCN2CCOCC2)c2ccc(Cl)cc21 [Compound 65, (R)-5'-Chloro-3-((S)-1-(4-chlorophenyl)ethyl)-1'-(3-morpholinopropyl)-4,6-dihydrospiro[[1,2,3]triazolo[4,5-b]pyridine-7,3'-indoline]-2',5(3H)-dione] | > 10000 nM | > 5000 nM | > 5000 nM | 5 nM | 76 nM | – | – | – | – | – | –
6 | C[C@@H](c1ccc(Cl)cc1)n1nnc2c1NC(=O)C[C@]21C(=O)N(CCCCN(C)C)c2ccc(Cl)cc21 [Compound 66, (R)-5'-Chloro-3-((S)-1-(4-chlorophenyl)ethyl)-1'-(4-(dimethylamino)butyl)-4,6-dihydrospiro[[1,2,3]triazolo[4,5-b]pyridine-7,3'-indoline]-2',5(3H)-dione] | > 10000 nM | > 5000 nM | > 5000 nM | 38 nM | 190 nM | – | – | – | – | – | –
7 | C[C@@H](c1ccc(Cl)cc1)n1nnc2c1NC(=O)C[C@]21C(=O)N(CCCCN2CCCCC2)c2ccc(Cl)cc21 [Compound 67, (R)-5'-Chloro-3-((S)-1-(4-chlorophenyl)ethyl)-1'-(4-(piperidin-1-yl)butyl)-4,6-dihydrospiro[[1,2,3]triazolo[4,5-b]pyridine-7,3'-indoline]-2',5(3H)-dione] | > 10000 nM | > 5000 nM | > 5000 nM | 78 nM | 350 nM | – | – | – | – | – | –
8 | C[C@@H](c1ccc(Cl)cc1)n1nnc2c1NC(=O)C[C@]21C(=O)N(CCCCCCN(C)C)c2ccc(Cl)cc21 [Compound 68, (R)-5'-Chloro-3-((S)-1-(4-chlorophenyl)ethyl)-1'-(6-(dimethylamino)hexyl)-4,6-dihydrospiro[[1,2,3]triazolo[4,5-b]pyridine-7,3'indoline]-2',5(3H)-dione] | > 10000 nM | 1500 nM | > 5000 nM | 66 nM | 900 nM | – | – | – | – | – | –
9 | C[C@@H](c1ccc(Cl)cc1)n1nnc2c1NC(=O)C[C@]21C(=O)N(CCCCCCCCN(C)C)c2ccc(Cl)cc21 [Compound 69, (R)-5'-Chloro-3-((S)-1-(4-chlorophenyl)ethyl)-1'-(8-(dimethylamino)octyl)-4,6-dihydrospiro[[1,2,3]triazolo[4,5-b]pyridine-7,3'-indoline]-2',5(3H)-dione] | > 10000 nM | > 5000 nM | > 5000 nM | 42 nM | 490 nM | – | – | – | – | – | –
10 | C[C@@H](c1ccc(Cl)cc1)n1nnc2c1NC(=O)C[C@]21C(=O)N(CCCCCCCCCCN(C)C)c2ccc(Cl)cc21 [Compound 70, (R)-5'-Chloro-3-((S)-1-(4-chlorophenyl)ethyl)-1'-(10-(dimethylamino)decyl)-4,6-dihydrospiro[[1,2,3]triazolo[4,5-b]pyridine-7,3'indoline]-2',5(3H)-dione] | > 10000 nM | 2700 nM | 3500 nM | 98 nM | 3500 nM | – | – | – | – | – | –
11 | C[C@@H](c1ccc(Cl)cc1)n1nnc2c1NC(=O)C[C@]21C(=O)N(CCOC(=O)CCCCCCCNC(=O)CCCC[C@@H]2SC[C@@H]3NC(=O)N[C@@H]32)c2ccc(Cl)cc21 [Compound 73, 2-((R)-5'-Chloro-3-((S)-1-(4-chlorophenyl)ethyl)-2',5-dioxo-3,4,5,6-tetrahydrospiro[[1,2,3]triazolo[4,5-b]pyridine-7,3'-indolin]-1'-yl)ethyl 8-(5-((3aS,4S,6aR)-2-oxohexahydro-1H-thieno[3,4-d]imidazol-4-yl)pentanamido)octanoate] | – | – | – | 17 nM | 41 nM | – | can pull down viral NS4B protein; also recorded: associated with DENV-2 viral NS4B protein | no significant activity | no significant activity | – | –
12 | C[C@@H](c1ccc(Cl)cc1)n1nnc2c1NC(=O)C[C@@]21C(=O)N(CCOC(=O)CCCCCCCNC(=O)CCCC[C@@H]2SC[C@@H]3NC(=O)N[C@@H]32)c2ccc(Cl)cc21 [Compound 75, 2-((S)-5'-Chloro-3-((S)-1-(4-chlorophenyl)ethyl)-2',5-dioxo-3,4,5,6-tetrahydrospiro[[1,2,3]triazolo[4,5-b]pyridine-7,3'-indolin]-1'-yl)ethyl 8-(5-((3aS,4S,6aR)-2-oxohexahydro-1H-thieno[3,4-d]imidazol-4-yl)pentanamido)octanoate] | – | – | – | – | – | – | not | – | – | not | not

— patent US20230056205A1, “SUBSTITUTED 4,6-DIHYDROSPIRO[[1,2,3]TRIAZOLO[4,5-B]PYRIDINE-7,3'-INDOLINE]-2',5(3H)-DIONE ANALOGUES” (The Board of Regents of The University of Texas System, priority 2019, published 2023)
